The values below come from a melting point compilation (Tetko et al.).

With `N#Cc1ccc(S(=O)(=O)N2CCC(C(=O)O)CC2)cc1`, the melting point (usually the temperature of the solid-liquid transition) lay within 175 to 177 °C.
The compound `OC(CC1CCCN1)c1cccs1` (centres undefined) showed a melting point of 63 to 65 °C.
`O=C1CCS(=O)(=O)c2ccc(F)cc21` had a melting point of 163 to 167 °C.
Then `Cc1cc(-n2c(C)cc(C(=O)CCl)c2C)no1`, with 110 to 112 °C; and `O=C(O)CSCc1ccc(Cl)c(Cl)c1`, with 67 to 69 °C; and `COc1cc(C)cc(C(=O)O)c1O`, with 189 to 191 °C.
Under `O=C(O)CN1C(=O)C2CCCCC2C1=O` (centres undefined) stands 88 to 90 °C; under `NCc1ccc(C(N)=O)cc1`, 141 to 143 °C.
On to `NCCc1c[nH]c2cc(Cl)ccc12`, for which the melting point was in the range of 104 to 106 °C.
Under `COC(=O)c1nnc2c(Cl)cccn12` stands 52 to 55 °C.
`O=C(CBr)c1ccc(S(=O)(=O)N2CCCCCC2)cc1` showed a melting point of 70 to 72 °C.
Under `O=C(O)Cc1coc(-c2ccc(Cl)cc2)n1` stands 191 to 193 °C; under `COc1ccc(Cl)cc1CC#N`, 51 to 55 °C.
Then `N#Cc1cc(S(N)(=O)=O)ccc1Cl`, with 219 to 221 °C; and `CC(=O)Nc1cc(N)c(F)cc1F`, with 104 to 106 °C; and `CC(C)(C)c1ccc(N2CCC(N)CC2)cc1`, with 80 to 82 °C.
Under `Cc1csc(C(O)(CC(=O)O)C(F)(F)F)n1` (centres undefined) stands 109 to 111 °C; under `O=C(O)CCNS(=O)(=O)c1cccnc1Cl`, 174 to 176 °C; under `NNC(=O)CSc1ccc(Cl)cc1`, 100 to 102 °C.
The compound `O=C(O)CCS(=O)(=O)c1ccc(Br)cc1` gave a melting point of 151 to 153 °C.
Then `Nc1ccnc2ccnn12`, with 198 to 200 °C; and `CC(=O)N(c1nc(C=O)cs1)C1CC1`, with 112 to 114 °C.
Under `NC(=O)Nc1cccc(N)c1` stands 125 to 127 °C; under `CS(=O)(=O)N1CCCC1C#N` (centres undefined), 62 to 64 °C.
Under `N#Cc1c(SCC(=O)O)nc2c(c1-c1ccco1)CCCC2` stands 209 to 211 °C; under `COCC1(O)CCNCC1`, 54 to 56 °C.
For the compound `CCc1ccc(OCC(=O)O)cc1`, the melting point was 93 to 97 °C.
Then `CCOC(CC(N)=O)OCC`, with 51 to 53 °C; and `Cc1cc(N)ccc1NS(C)(=O)=O`, with 141 to 143 °C; and `O=c1[nH]c(-c2cccs2)no1`, with 183 to 185 °C.
Then `CCN(CC)S(=O)(=O)c1cc(C(=O)O)ccc1F`, with 159 to 161 °C; and `Cc1cc(Br)cc(C)c1N1CCCC1=O`, with 103 to 105 °C; and `NC(=O)c1cc(N2CCCCC2)ccc1N`, with 168 to 170 °C.
Under `CC(C)c1c(C(=O)O)nnn1-c1ccc(F)cc1F` stands 158 to 160 °C; under `N#CCc1ccc(OCc2ccccn2)cc1`, 76 to 78 °C; under `O=C(O)c1cc2c([nH]1)CCC2`, 109 to 111 °C.
Compound `CS(=O)(=O)Cc1cc(F)ccc1N` returned a melting point of 126 to 128 °C.
On to `O=C(CO)NCc1ccccc1`, for which the melting point was 101 to 103 °C.
Under `CNc1n[nH]c(N)c1S(C)(=O)=O` stands 171 to 173 °C; under `COc1cc(Cl)c(C)cc1N`, 102 to 103 °C; under `CCC(CC)(Cc1nc2ccccc2s1)C(=O)O`, 143 to 145 °C.
Take `Cc1c(N)cccc1NC(=O)c1ccccc1I`: the melting point lay within 198 to 200 °C.
For `NCc1ccc(S(=O)(=O)N2CCOCC2)cc1`, the melting point lay in the range of 121 to 123 °C.
Take `CS(=O)(=O)CCS(N)(=O)=O`: the melting point was in the range of 149 to 151 °C.
Under `NC(=S)N1CCN(c2nccs2)CC1` stands 179 to 181 °C; under `COc1ccccc1NS(=O)(=O)c1cccc(N)c1`, 35 to 37 °C; under `O=S(=O)(NC1CCCC1)c1ccc(Cl)nc1`, 97 to 99 °C.
Then `CCNC(=O)c1cccc(C#N)c1`, with 99 to 101 °C; and `CCS(=O)(=O)N1CCc2cc(C(=O)CCl)ccc21`, with 231 to 233 °C.
